Structures can show the parent of a compound that is named as a salt.

The assay deals with T1, mGlyT-1b (Mus musculus, UniProt P28571).
T1 construct: host or cells: Flp-in-CHO
T1 sequence (P28571 1-651 isoform P28571-2): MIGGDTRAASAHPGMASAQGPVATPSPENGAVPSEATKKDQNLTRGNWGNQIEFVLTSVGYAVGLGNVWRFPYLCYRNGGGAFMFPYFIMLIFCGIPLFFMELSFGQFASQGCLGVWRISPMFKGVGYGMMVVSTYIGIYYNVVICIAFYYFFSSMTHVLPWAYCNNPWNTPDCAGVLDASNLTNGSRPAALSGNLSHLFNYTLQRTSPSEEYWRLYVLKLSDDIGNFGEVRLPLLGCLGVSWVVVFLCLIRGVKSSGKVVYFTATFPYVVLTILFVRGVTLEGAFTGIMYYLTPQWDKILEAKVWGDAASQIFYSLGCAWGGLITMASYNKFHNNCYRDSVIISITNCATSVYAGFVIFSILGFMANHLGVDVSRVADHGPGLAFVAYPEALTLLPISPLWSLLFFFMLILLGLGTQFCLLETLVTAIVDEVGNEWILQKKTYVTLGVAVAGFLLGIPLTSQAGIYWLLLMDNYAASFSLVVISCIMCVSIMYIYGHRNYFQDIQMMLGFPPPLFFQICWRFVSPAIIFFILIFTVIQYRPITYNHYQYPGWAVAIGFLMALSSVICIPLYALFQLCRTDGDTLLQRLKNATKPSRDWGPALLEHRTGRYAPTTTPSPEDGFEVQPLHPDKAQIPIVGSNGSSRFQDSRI
Put plainly: Glycine uptake inhibition assay (mGlyT-1b), [3H]-glycine uptake in transfected Flp-in-CHO cells. Type of assay: cell-based. The conditions noted are these: Flp-in-CHO cells transfected with mGlyT-1b cDNA; [3H]-glycine 60 nM and 25 μM non-radioactive glycine; 20 min preincubation at 22° C.; read-out: IC50 (μM) at GlyT-1; Ic50 (hglyt1b). How it is done:
Nutrient mixture F-12 (Gibco Life-technologies), fetal bovine serum (FBS) 5%, (Gibco life technologies), Penicillin/Streptomycin 1% (Gibco life technologies), Hygromycin 0.6 mg/ml (Gibco life technologies), Glutamine 1 mM Gibco life technologies).
150 mM NaCl, 10 mM Hepes-Tris, pH 7.4, 1 mM CaCl2, 2.5 mM KCl, 2.5 mM MgSO4, 10 mM (+) D-glucose. Flp-in™-CHO (Invitrogen Cat n° R758-07) cells stably transfected with mGlyT1b cDNA.
Glycine Uptake Inhibition Assay (mGlyT-1b)
On day 1 mammalian cells, (Flp-in™-CHO), transfected with mGlyT-1b cDNA, were plated at the density of 40,000 cells/well in complete F-12 medium, without hygromycin in 96-well culture plates. On day 2, the medium was aspirated and the cells were washed twice with uptake buffer (UB). The cells were then incubated for 20 min at 22° C. with either (i) no potential competitor, (ii) 10 mM non-radioactive glycine, (iii) a concentration of a potential inhibitor. A range of concentrations of the potential inhibitor was used to generate data for calculating the concentration of inhibitor resulting in 50% of the effect (e.g. IC50, the concentration of the competitor inhibiting glycine uptake of 50%). A solution was then immediately added containing [^3H]-glycine 60 nM (11-16 Ci/mmol) and 25 μM non-radioactive glycine. The plates were incubated with gentle shaking and the reaction was stopped by aspiration of the mixture and washing (three times) with ice-cold UB. The cells were lysed with scintillation liquid, shaken 3 hours and the radioactivity in the cells was counted using a scintillation counter.
Broadly, the IC50 is the midpoint of a concentration-inhibition curve. In the case of `CN[C@@H](c1ccc(Cl)c(Cl)c1)[C@H](O)c1ccc(-c2cncc(F)c2)cc1` (racemic) [Example 39, rac-erythro-[2-(3,4-Dichloro-phenyl)-1-[4-(5-fluoro-pyridin-3-yl)-phenyl]-2-methylamino-ethanol hydrochloride], the 50% inhibitory concentration (IC50) came to 0.208 µM.

On to `N[C@@H](c1ccc(Cl)c(Cl)c1)[C@H](O)c1ccc(OC2CCOCC2)cc1` (racemic) [Example 40, rac-erythro-[2-Amino-2-(3,4-dichloro-phenyl)-1-[4-(tetrahydro-pyran-4-yloxy)-phenyl]-ethanol], for which the IC50 worked out at 0.052 µM.

With `N[C@@H](c1ccc(Cl)c(Cl)c1)[C@H](O)c1ccc(OC2CCOC2)cc1` (mixture of isomers) [Example 42, rac-erythro-[rac-2-Amino-2-(3,4-dichloro-phenyl)-1-[4-(tetrahydro-furan-3-yloxy)-phenyl]-ethanol], the 50% inhibitory concentration (IC50) turned out to be 0.052 µM.

As to `CC(CO)(CCl)COc1ccc([C@@H](O)[C@@H](N)c2ccc(Cl)c(Cl)c2)cc1` (mixture of isomers) [Example 43, rac-erythro-[2-Amino-2-(3,4-dichloro-phenyl)-1-hydroxy-ethyl]-phenoxy]-2-chloromethyl-2-methyl-propan-1-ol hydrochloride], the concentration for half-maximal inhibition (IC50) stood at 0.053 µM.

With `N[C@@H](c1ccc(Cl)c(Cl)c1)[C@H](O)c1ccc(OC2CCS(=O)(=O)CC2)cc1` (racemic) [Example 44, rac-erythro-[2-Amino-2-(3,4-dichloro-phenyl)-1-[4-(1,1-dioxo-hexahydro-1λ^6-thio-pyran-4-yloxy)-phenyl]-ethanol], the concentration for half-maximal inhibition (IC50) worked out at 0.088 µM.

Take `N[C@@H](c1ccc(Cl)c(Cl)c1)[C@H](O)c1ccc(OCC2CCOCC2)cc1` (racemic) [Example 45, rac-erythro-[2-Amino-2-(3,4-dichloro-phenyl)-1-[4-(tetrahydro-pyran-4-ylmethoxy)-phenyl]-ethanol]: the IC50 came to 0.147 µM.

On to `CC(=O)N1CCC(Oc2ccc([C@@H](O)[C@@H](N)c3ccc(Cl)c(Cl)c3)cc2)CC1` (racemic) [Example 46, rac-erythro-[1-(4-[4-[2-Amino-2-(3,4-dichloro-phenyl)-1-hydroxy-ethyl]-phenoxy]-piperidin-1-yl)-ethanone], for which the IC50 was 0.262 µM.

As to `N[C@@H](c1ccc(Cl)c(Cl)c1)[C@H](O)c1ccc(OCC(F)(F)F)cc1` (racemic) [Example 47, rac-erythro-[2-Amino-2-(3,4-dichloro-phenyl)-1-[4-(2,2,2-trifluoro-ethoxy)-phenyl]-ethanol], the IC50 was determined as 0.266 µM.

With `N[C@@H](c1ccc(Cl)cc1)[C@H](O)c1ccc(OC2CCCC2)cc1` (racemic) [Example 48, rac-erythro-[2-Amino-2-(4-chloro-phenyl)-1-(4-cyclopentyloxy-phenyl)-ethanol hydrochloride], the IC50 worked out at 0.433 µM.

Take `N[C@@H](c1ccc(Cl)c(Cl)c1)[C@H](O)c1ccc(OCC2CC2)cc1` (racemic) [Example 49, rac-erythro-[2-Amino-1-(4-cyclopropylmethoxy-phenyl)-2-(3,4-dichloro-phenyl)-ethanol]: the 50% inhibitory concentration (IC50) is 0.533 µM.

`CC(C)COc1ccc([C@@H](O)[C@@H](N)c2ccc(Cl)c(Cl)c2)cc1` (racemic) [Example 50, rac-erythro-2-Amino-2-(3,4-dichloro-phenyl)-1-(4-isobutoxy-phenyl)-ethanol]: the IC50 was 0.549 µM.

For the molecule `CCC(C)Oc1ccc([C@@H](O)[C@@H](N)c2ccc(Cl)c(Cl)c2)cc1` (mixture of isomers) [Example 51, rac-erythro-2-Amino-1-(4-sec-butoxy-phenyl)-2-(3,4-dichloro-phenyl)-ethanol], the IC50 came out at 0.72 µM.

With `N[C@@H](c1ccc(Cl)c(Cl)c1)[C@H](O)c1ccc(OCCC(F)(F)F)cc1` (racemic) [Example 52, rac-erythro-2-Amino-2-(3,4-dichloro-phenyl)-1-[4-(3,3,3-trifluoro-propoxy)-phenyl]-ethanol], the half-maximal inhibitory concentration (IC50) was found to be 0.772 µM.

For `N[C@@H](c1ccc(Cl)cc1)[C@H](O)c1ccc(OC2CCCCC2)cc1` (racemic) [Example 53, rac-erythro-2-Amino-2-(4-chloro-phenyl)-1-(4-cyclohexyloxy-phenyl)-ethanol], the concentration for half-maximal inhibition (IC50) is 1.03 µM.

For the molecule `Cc1ccc([C@H](N)[C@H](O)c2ccc(OC3CCOCC3)cc2)cc1Cl` (racemic) [Example 54, rac-erythro-[2-Amino-2-(3-chloro-4-methyl-phenyl)-1-[4-(tetrahydro-pyran-4-yloxy)-phenyl]-ethanol], the IC50 stood at 0.104 µM.

Take `Cc1ccc([C@H](N)[C@H](O)c2ccc(OC3CCOC3)cc2)cc1Cl` (mixture of isomers) [Example 55, rac-erythro-[2-Amino-2-(3-chloro-4-methyl-phenyl)-1-[4-(tetrahydro-furan-3-yloxy)-phenyl]-ethanol]: the IC50 stood at 0.131 µM.

For `Cc1ccc([C@H](N)[C@H](O)c2ccc(OC(C)C)cc2)cc1Cl` (racemic) [Example 56, rac-erythro-2-Amino-2-(3-chloro-4-methylphenyl)-1-(4-isopropoxy-phenyl)-ethanol], the IC50 amounted to 0.381 µM.

For `Cc1ccc([C@H](N)[C@H](O)c2ccc(OC3CCOCC3)cc2)cc1F` (racemic) [Example 57, rac-erythro-2-Amino-2-(3-fluoro-4-methyl-phenyl)-1-[4-(tetrahydro-pyran-4-yloxy)-phenyl]-ethanol], the 50% inhibitory concentration (IC50) came to 0.202 µM.

Take `N[C@@H](c1ccc(Cl)cc1)[C@H](O)c1ccc(OC(CF)CF)cc1` (racemic) [Example 58, rac-erythro-2-Amino-2-(4-chloro-phenyl)-1-[4-(2-fluoro-1-fluoromethyl-ethoxy)-phenyl]-ethanol]: the IC50 stood at 0.478 µM.

As for `N[C@@H](c1ccc(Cl)cc1)[C@H](O)c1ccc(OC2CCOCC2)cc1` (racemic) [Example 59, rac-erythro-2-Amino-2-(4-chloro-phenyl)-1-[4-(tetrahydro-pyran-4-yloxy)-phenyl]-ethanol], the half-inhibitory concentration (IC50) turned out to be 0.054 µM.

For the molecule `COCc1cccc(-c2ccc([C@@H](O)[C@@H](N)c3ccc(Cl)cc3)cc2)c1` (racemic) [Example 60, rac-erythro-2-Amino-2-(4-chloro-phenyl)-1-(3′-methoxymethyl-biphenyl-4-yl)-ethanol hydrochloride], the concentration for half-maximal inhibition (IC50) was 0.261 µM.

`N[C@@H](c1ccc(Cl)cc1)[C@H](O)c1ccc(-c2ccncc2)cc1` (racemic) [Example 61, rac-erythro-2-Amino-2-(4-chloro-phenyl)-1-(4-pyridin-4-yl-phenyl)-ethanol]: the IC50 was 0.06 µM.

`CS(=O)(=O)c1cccc(-c2ccc([C@@H](O)[C@@H](N)c3ccc(Cl)cc3)cc2)c1` (racemic) [Example 62, rac-erythro-2-Amino-2-(4-chloro-phenyl)-1-(3′-methanesulfonyl-biphenyl-4-yl)-ethanol]: the half-maximal inhibitory concentration (IC50) turned out to be 0.068 µM.

Regarding `N[C@@H](c1ccc(Cl)cc1)[C@H](O)c1ccc(-c2cccnc2)cc1` (racemic) [Example 63, rac-erythro-2-Amino-2-(4-chloro-phenyl)-1-(4-pyridin-3-yl-phenyl)-ethanol hydrochloride], the half-maximal inhibitory concentration (IC50) worked out at 0.09 µM.

For the molecule `COc1cncc(-c2ccc([C@@H](O)[C@@H](N)c3ccc(Cl)cc3)cc2)c1` (racemic) [Example 64, rac-erythro-2-Amino-2-(4-chloro-phenyl)-1-[4-(5-methoxy-pyridin-3-yl)-phenyl]-ethanol], the 50% inhibitory concentration (IC50) came to 0.138 µM.

As for `N[C@@H](c1ccc(Cl)cc1)[C@H](O)c1ccc(-c2cncnc2)cc1` (racemic) [Example 65, rac-erythro-2-Amino-2-(4-chloro-phenyl)-1-(4-pyrimidin-5-yl-phenyl)-ethanol], the IC50 came out at 0.139 µM.

`N[C@@H](c1ccc(Cl)cc1)[C@H](O)c1ccc(-c2cncc(F)c2)cc1` (racemic) [Example 66, rac-erythro-2-Amino-2-(4-chloro-phenyl)-1-[4-(5-fluoro-pyridin-3-yl)-phenyl]-ethanol]: the IC50 was determined as 0.152 µM.
